Legend:
[1] = Arterial blood gas analysis; format: in vivo, rabbit; conditions: for pH: arterial blood
Procedure: Male New Zealand white rabbits weighing between 2.5 and 3.0 kg were anesthetized with intravenous sodium pentobarbital (30 mg/kg). Additional doses of pentobarbital were titrated as required to assure that pedal and palpebral reflexes were absent throughout the experiment. A tracheotomy was performed through a ventral midline incision, and the trachea was cannulated. The rabbits were ventilated with positive pressure using an air-oxygen mixture (FiO2=0.33). […] Body temperature was maintained with a heating blanket. Heparin-filled catheters were inserted into the right carotid artery and the left jugular vein for measurement of arterial blood pressure and fluid or drug administration, respectively. Maintenance fluids consisted of 0.9% saline (15 ml/kg/h) that were continued for the duration of the experiment.
(§1) Baseline measurements of systemic hemodynamics, arterial blood gas tensions, and blood concentrations of anesthetic agent were performed 30 min after instrumentation was completed. Rabbits received 0.9% saline, drug lipid vehicle (10 ml/h), or intravenous volatile anesthetic (10 ml/h) for 30 min. Infusions were discontinued 30 min prior to coronary occlusion (memory period). Blood concentrations of anesthetic agents were performed at baseline, at the end of anesthetic infusion, and at the end of the memory period just before coronary occlusion). HVA concentrations in blood were determined by gas chromatographic (GC) analysis. All rabbits underwent a 30 min LAD occlusion followed by 3 h reperfusion.
(§2) Statistical analysis of data within and between groups was performed with analysis of variance (ANOVA) for repeated measures followed by Student-Newman-Keuls test. Changes between groups were considered statistically significant when the p value was less than 0.05. All data are expressed as mean±SEM.

[2] = End-tidal gas analysis; format: in vivo, rabbit; conditions: for EtHalogenated: end-tidal
Procedure: as §1, §2

[3] = Blood concentration of anesthetics by GC and conversion to MAC-equivalents; format: in vivo, rabbit
Procedure: as §1
Blood concentrations as measured by GC were converted to their MAC-equivalent values by calculations described below. Initially “n”, or the number of moles of HVA in 1 L of alveolar gas during exposure to 1.0 MAC of the HVA was calculated. The ideal gas law n=PV/RT is used to calculate the number of moles of HVA present at 1 MAC in the alveolar gas where: V=1 L, T=273+37=310° (K); and R=0.0821 (universal gas constant). P or pressure was determined taking into account the vapor pressure of water at 37° C. which is 47.1 torr, and the volume percent of the HVA. Volume percentages of HVAs (MAC values) were obtained from literature values determined in rabbits (Scheller et al. Can. J. Anaesth. 1988, 35: 133-136; Drummond, J C Anesthesiology 1985; 62: 336-8, and Doorley et al. Anesthesiology 1988; 69, 89-91), and are presented in Table 8.
The number of moles of the HVA in 1 L at 37° C. at 1 MAC in rabbits was then used to determine the concentration of the HVA present in blood by using known blood/gas partition values (also known as λ). Blood gas partition values for the HVAs used in the study are show in Table 8. The value for “x” (or the equivalent blood concentration of the HVA at 1 MAC at 37° C. in rabbit) is then determined by the equation: x=λn
To express a measured blood concentration of an HVA as a MAC-equivalent value, the measured blood concentration is divided by x. The MAC equivalent values shown in Table 8 were calculated according to the above from the blood concentrations observed (see Table 7).

[4] = Literature MAC values in rabbits and 1 MAC-equivalent blood concentration; format: in vivo; conditions: 37° C., rabbit; x=λn
Procedure: “Minimum alveolar concentration (MAC)”, as is known in the art, is the alveolar concentration of an anesthetic, administered by inhalation at a pressure of 1 atmosphere, that prevents movement in 50% of patients in response to a painful stimuli. The MAC is age-dependent; it may be affected by a patient's medical condition; and it may also be affected by other pharmaceutical agents that are administered to the patient. In the context of intravenous administration of HVAs, the term “MAC” or “MAC-equivalent” is intended to mean an intravenous dose which produces the same blood plasma concentration of an anesthetic agent as that attained by inhalational administration of a gaseous concentration of anesthetic which prevents such movement in 50% of patients.
Blood concentrations as measured by GC were converted to their MAC-equivalent values by calculations described below. Initially “n”, or the number of moles of HVA in 1 L of alveolar gas during exposure to 1.0 MAC of the HVA was calculated.
The number of moles of the HVA in 1 L at 37° C. at 1 MAC in rabbits was then used to determine the concentration of the HVA present in blood by using known blood/gas partition values (also known as λ). […] The value for “x” (or the equivalent blood concentration of the HVA at 1 MAC at 37° C. in rabbit) is then determined by the equation: x=λn

[5] = literature values determined in rabbits; cited from earlier work
[6] = Infusion (end of 30 min, 10 ml/h i.v. infusion)
[7] = Memory (30 min after infusion, just before coronary occlusion)
[8] = measured blood concentration divided by x

In the case of `FC(F)OC(F)C(F)(F)F` (stereo not drawn) [DES, desflurane], the PaCO2 ([1]; Baseline) is reported as 29 ± 2 mmHg, the PaO2 ([1]; Baseline) is reported as 158 ± 23 mmHg and the PaCO2 ([1]; Infusion) is reported as 32 ± 3 mmHg. It also gave a PaO2 ([1]; Infusion) of 157 ± 17 mmHg, a PaCO2 ([1]; Ischemia 30 min) of 31 ± 3 mmHg and a PaO2 ([1]; Ischemia 30 min) of 136 ± 24 mmHg. For the same compound, the PaCO2 ([1]; Memory) was 34 ± 3 mmHg, the PaO2 ([1]; Memory) was 143 ± 17 mmHg and the PaCO2 ([1]; Reperfusion 1 h) was 30 ± 4 mmHg. It also gave a PaO2 ([1]; Reperfusion 1 h) of 141 ± 19 mmHg, a PaCO2 ([1]; Reperfusion 2 h) of 26 ± 3 mmHg and a PaO2 ([1]; Reperfusion 2 h) of 155 ± 18 mmHg. For the same compound, the PaCO2 ([1]; Reperfusion 3 h) was 30 ± 1 mmHg, the PaO2 ([1]; Reperfusion 3 h) was 165 ± 12 mmHg and the pH ([1]; Baseline) was 7.45 ± 0.02. The pH ([1]; Infusion) was 7.40 ± 0.02, the pH ([1]; Ischemia 30 min) was 7.34 ± 0.01 and the pH ([1]; Memory) was 7.36 ± 0.02. For the same compound, the pH ([1]; Reperfusion 1 h) was 7.37 ± 0.02, the pH ([1]; Reperfusion 2 h) was 7.40 ± 0.01 and the pH ([1]; Reperfusion 3 h) was 7.41 ± 0.01. It also gave an EtCO2 ([2]; Baseline) of 31 ± 2 mmHg, an EtCO2 ([2]; Infusion) of 30 ± 2 mmHg and an EtCO2 ([2]; Ischemia 30 min) of 26 ± 3 mmHg. The EtCO2 ([2]; Memory) was 28 ± 3 mmHg, the EtCO2 ([2]; Reperfusion 1 h) was 29 ± 4 mmHg and the EtCO2 ([2]; Reperfusion 2 h) was 28 ± 3 mmHg. For the same compound, the EtCO2 ([2]; Reperfusion 3 h) was 29 ± 3 mmHg, the EtHalogenated ([2]; Baseline) was 0% and the EtHalogenated ([2]; Infusion) was 0.37 ± 0.03 %. For the same compound, the EtHalogenated ([2]; Ischemia 30 min) was 0.01 ± 0.00%, the EtHalogenated ([2]; Memory) was 0.03 ± 0.01% and the EtHalogenated ([2]; Reperfusion 1 h) was 0.00 ± 0.00%. For the same compound, the EtHalogenated ([2]; Reperfusion 2 h) was 0.00 ± 0.00%, the EtHalogenated ([2]; Reperfusion 3 h) was 0.00 ± 0.00% and the “Blood Concentration” value ([3]; Baseline) was 0 µM. For the same compound, the “Blood Concentration” value [3, 6] was 180 ± 30 µM, the “Blood Concentration” value [3, 7] was 30 ± 20 µM and the “Observed Blood Concentration following 30 min, 10 mL/h Infusion” value ([3]; i.v. emulsion) was 0.18 mM. For the same compound, the “Observed Blood Concentration following 30 min, 10 mL/h Infusion” value [3, 8] was 0.13 MAC-Equivalents, the “1 MAC-Equivalent Blood Concentration at 1 MAC ("x")” value [4] was 1.38 mM and the “Average MAC” value [5] was 8.9 % v/v.

Work on `FC(F)OC(F)(F)C(F)Cl` (stereo not drawn) [ENF, enflurane] yielded a PaCO2 ([1]; Baseline) of 28 ± 2 mmHg, a PaO2 ([1]; Baseline) of 151 ± 16 mmHg and a PaCO2 ([1]; Infusion) of 31 ± 2 mmHg. For the same compound, the PaO2 ([1]; Infusion) was 130 ± 14 mmHg, the PaCO2 ([1]; Ischemia 30 min) was 32 ± 2 mmHg and the PaO2 ([1]; Ischemia 30 min) was 157 ± 22 mmHg. For the same compound, the PaCO2 ([1]; Memory) was 30 ± 2 mmHg, the PaO2 ([1]; Memory) was 149 ± 16 mmHg and the PaCO2 ([1]; Reperfusion 1 h) was 28 ± 2 mmHg. For the same compound, the PaO2 ([1]; Reperfusion 1 h) was 143 ± 11 mmHg, the PaCO2 ([1]; Reperfusion 2 h) was 27 ± 2 mmHg and the PaO2 ([1]; Reperfusion 2 h) was 135 ± 10 mmHg. It also gave a PaCO2 ([1]; Reperfusion 3 h) of 32 ± 3 mmHg, a PaO2 ([1]; Reperfusion 3 h) of 131 ± 12 mmHg and a pH ([1]; Baseline) of 7.47 ± 0.02. It also gave a pH ([1]; Infusion) of 7.41 ± 0.02, a pH ([1]; Ischemia 30 min) of 7.37 ± 0.02 and a pH ([1]; Memory) of 7.40 ± 0.02. It also gave a pH ([1]; Reperfusion 1 h) of 7.38 ± 0.02, a pH ([1]; Reperfusion 2 h) of 7.40 ± 0.03 and a pH ([1]; Reperfusion 3 h) of 7.42 ± 0.02. For the same compound, the EtCO2 ([2]; Baseline) was 36 ± 2 mmHg, the EtCO2 ([2]; Infusion) was 37 ± 2 mmHg and the EtCO2 ([2]; Ischemia 30 min) was 33 ± 3 mmHg. For the same compound, the EtCO2 ([2]; Memory) was 34 ± 2 mmHg, the EtCO2 ([2]; Reperfusion 1 h) was 33 ± 3 mmHg and the EtCO2 ([2]; Reperfusion 2 h) was 33 ± 3 mmHg. It also gave an EtCO2 ([2]; Reperfusion 3 h) of 35 ± 3 mmHg, an EtHalogenated ([2]; Baseline) of 0% and an EtHalogenated ([2]; Infusion) of 0.27 ± 0.02%. It also gave an EtHalogenated ([2]; Ischemia 30 min) of 0.00 ± 0.00%, an EtHalogenated ([2]; Memory) of 0.02 ± 0.01% and an EtHalogenated ([2]; Reperfusion 1 h) of 0.00 ± 0.00%. The EtHalogenated ([2]; Reperfusion 2 h) was 0.00 ± 0.00%, the EtHalogenated ([2]; Reperfusion 3 h) was 0.00 ± 0.00% and the “Blood Concentration” value ([3]; Baseline) was 0 µM. The “Blood Concentration” value [3, 6] was 310 ± 30 µM, the “Blood Concentration” value [3, 7] was 60 ± 10 µM and the “Observed Blood Concentration following 30 min, 10 mL/h Infusion” value ([3]; i.v. emulsion) was 0.31 mM. For the same compound, the “Observed Blood Concentration following 30 min, 10 mL/h Infusion” value [3, 8] was 0.15 MAC-Equivalents, the “1 MAC-Equivalent Blood Concentration at 1 MAC ("x")” value [4] was 1.995 mM and the “Average MAC” value [5] was 2.86 % v/v.

Source: patent publication US7999011B2, “Method for cardioprotection and neuroprotection by intravenous administration of halogenated volatile anesthetics” (Baxter International Inc., priority 2002, dated 2011)
